Experimental data as given in ChEMBL document CHEMBL3580560, “Isolation, Structural Modification, and HIV Inhibition of Pentacyclic Lupane-Type Triterpenoids from Cassine xylocarpa and Maytenus cuzcoina” (J Nat Prod, 2015).

Test system: Human immunodeficiency virus 1
Assay: Antiviral activity against HIV1 NL4.3-Ren infected in human MT2 cells assessed as inhibition of viral growth at 10 uM measured 48 hrs post infection by luminometry
Format: functional
Conditions: Human immunodeficiency virus 1, NL4.3-Ren, MT2, 48 h

Compound `C=C(C)[C@@H]1CC[C@]2(COC(C)=O)CC[C@]3(C)[C@H](CC[C@@H]4[C@@]5(C)CC[C@H](O)C(C)(C)[C@@H]5CC[C@]43C)[C@@H]12` has an inhibition at 10 µM of less than 50%.

`C=C(C)[C@@H]1CC[C@]2(C)CC[C@]3(C)[C@H](C[C@@H](O)[C@@H]4[C@@]5(C)CC[C@@H](O)C(C)(C)[C@@H]5CC[C@]43C)[C@@H]12` gave an inhibition at 10 µM of less than 50%.

For `C=C(C)[C@@H]1CC[C@]2(C)CC[C@]3(C)[C@H](CC[C@@H]4[C@@]5(C)[C@H](O)C[C@H](O)C(C)(C)[C@@H]5CC[C@]43C)[C@@H]12`, the inhibition at 10 µM was less than 50%.

Work on `C=C(C)[C@@H]1CC[C@]2(COC(=O)C(C)(C)C)CC[C@]3(C)[C@H](CC[C@@H]4[C@@]5(C)CC[C@H](O)C(C)(C)[C@@H]5CC[C@]43C)[C@@H]12` yielded an inhibition at 10 µM of less than 50%.

In the case of `C=C(C)[C@@H]1CC[C@]2(COC(=O)CCCCCCC)CC[C@]3(C)[C@H](CC[C@@H]4[C@@]5(C)CC[C@H](O)C(C)(C)[C@@H]5CC[C@]43C)[C@@H]12`, the inhibition at 10 µM is reported as less than 50%.

For `C=C(C)[C@@H]1CC[C@]2(COC(=O)c3ccccc3)CC[C@]3(C)[C@H](CC[C@@H]4[C@@]5(C)CC[C@H](O)C(C)(C)[C@@H]5CC[C@]43C)[C@@H]12`, the inhibition at 10 µM was less than 50%.

`C=C(C)[C@@H]1CC[C@]2(COC(=O)c3cccc4ccccc34)CC[C@]3(C)[C@H](CC[C@@H]4[C@@]5(C)CC[C@H](O)C(C)(C)[C@@H]5CC[C@]43C)[C@@H]12` gave an inhibition at 10 µM of less than 50%.

For `C=C(C)[C@@H]1CC[C@]2(COC(=O)c3ccc(Br)cc3)CC[C@]3(C)[C@H](CC[C@@H]4[C@@]5(C)CC[C@H](O)C(C)(C)[C@@H]5CC[C@]43C)[C@@H]12`, the inhibition at 10 µM was less than 50%.

Compound `C=C(C)[C@@H]1CC[C@]2(COS(=O)(=O)c3ccc(C)cc3)CC[C@]3(C)[C@H](CC[C@@H]4[C@@]5(C)CC[C@H](O)C(C)(C)[C@@H]5CC[C@]43C)[C@@H]12` has an inhibition at 10 µM of less than 50%.

In the case of `C=C(C)[C@@H]1CC[C@]2(COC(=O)CCCCCCC)CC[C@]3(C)[C@H](CC[C@@H]4[C@@]5(C)CC[C@H](OC(=O)CCCCCCC)C(C)(C)[C@@H]5CC[C@]43C)[C@@H]12`, the inhibition at 10 µM is reported as less than 50%.

`C=C(C)[C@@H]1CC[C@]2(COC(=O)c3cccc4ccccc34)CC[C@]3(C)[C@H](CC[C@@H]4[C@@]5(C)CC[C@H](OC(=O)c6cccc7ccccc67)C(C)(C)[C@@H]5CC[C@]43C)[C@@H]12` showed an inhibition at 10 µM of less than 50%.

Compound `C=C(C)[C@@H]1CC[C@]2(CO[Si](C)(C)C(C)(C)C)CC[C@]3(C)[C@H](CC[C@@H]4[C@@]5(C)CC[C@H](O)C(C)(C)[C@@H]5CC[C@]43C)[C@@H]12` has an inhibition at 10 µM of less than 50%.

`CC(=O)OC[C@]12CC[C@@H](C(C)(O)CO)[C@@H]1[C@H]1CC[C@@H]3[C@@]4(C)CC[C@H](O)C(C)(C)[C@@H]4CC[C@@]3(C)[C@]1(C)CC2` (stereo partly drawn) gave an inhibition at 10 µM of less than 50%.

Compound `CC(=O)OC[C@]12CC[C@@H]([C@]3(C)CO3)[C@@H]1[C@H]1CC[C@@H]3[C@@]4(C)CC[C@H](O)C(C)(C)[C@@H]4CC[C@@]3(C)[C@]1(C)CC2` has an inhibition at 10 µM of less than 50%.

With `CC(C)[C@@H]1CC[C@]2(C)CC[C@]3(C)[C@@H](CC[C@@H]4[C@@]5(C)CC[C@H](OC(=O)/C=C/c6ccc(O)c(O)c6)C(C)(C)[C@@H]5CC[C@]43C)[C@@H]12` the inhibition at 10 µM was less than 50%.

`C=C(CO)[C@@H]1CC[C@]2(C)CC[C@]3(C)[C@H](CC[C@@H]4[C@@]5(C)CCC(=O)C(C)(C)[C@@H]5CC[C@]43C)[C@@H]12` showed an inhibition at 10 µM of less than 50%.

For `C=C(C)[C@@H]1CC[C@]2(CO)CC[C@]3(C)[C@H](CC[C@@H]4[C@@]5(C)CC[C@H](OC(=O)/C=C/c6ccc(O)c(O)c6)C(C)(C)[C@@H]5CC[C@]43C)[C@@H]12`, the inhibition at 10 µM was less than 50%.

With `C=C(CO)[C@@H]1CC[C@]2(C)CC[C@]3(C)[C@H](CC[C@@H]4[C@@]5(C)CC[C@H](O)C(C)(C)[C@@H]5CC[C@]43C)[C@@H]12` the inhibition at 10 µM was less than 50%.
